IC50 data for 28 compounds are collected here from patent publication US20020183518A1, “Modulators of proteins with phosphotyrosine recognition units” (ONTOGEN CORPORATION, priority 1995, published 2002).

One experiment concerns the target T1, PTP-1B (Homo sapiens, UniProt P18031).
T1 construct: known to encode a 321 amino acid fragment containing the PTP-1B catalytic domain and having PTPase activity; made in house; host or cells: E. coli DH5α, plasmid pGEX-3X-PTP-1B
T1 sequence (P18031 3-277 limits assumed): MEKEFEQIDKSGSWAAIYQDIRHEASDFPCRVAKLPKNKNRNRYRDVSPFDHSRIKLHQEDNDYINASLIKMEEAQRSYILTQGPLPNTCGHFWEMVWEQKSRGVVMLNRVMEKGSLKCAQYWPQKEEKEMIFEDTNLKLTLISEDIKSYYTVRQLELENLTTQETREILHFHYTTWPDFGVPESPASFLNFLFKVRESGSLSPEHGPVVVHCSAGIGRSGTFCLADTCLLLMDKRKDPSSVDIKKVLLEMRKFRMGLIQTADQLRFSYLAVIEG
Description: In vitro PTPase inhibition assay (pNPP, colorimetric), PTP-1B. It is filed as biochemical. As to conditions: Table 9; read-out: IC50 values against PTP1B. As to the method:
PTP-1B enzymatic activity of samples was assayed in microtiter plates as follows. The protein concentration of the PTP-1B enzyme preparation was determined using the Bio-Rad Protein Assay kit (Bio-Rad, Hercules Calif.). […] Reactions were mixed gently and incubated at 37° C. for 60 minutes. Enzymatic cleavage of phosphate from pNPP (a tyrosine phosphate analog) is marked by a colorimetric change in this substrate. See, e.g., Imbert et al., Biochem J., 297:163-173 (1994); Ghosh and Miller, Biochem. Biophys. Res. […] Zanke et al., Eur. J. […] To determine the enzymatic activity, absorbance readings of the reactions were measured at 405 nm using a Molecular Devices Thermomax Plate Reader (Menlo Park Calif.). […] Purified phosphatase was added to the reaction mixtures to begin the reactions; the reactions were incubated at 37° C. for 60 min. […] (for PTP-1C and PTPα assays), stopped, and colorimetrically analyzed as described above. […] First, absorbance readings from the negative control reactions were treated as a baseline and subtracted from the absorbance readings of the experimental reactions. Then, for each reaction, a percent inhibition was calculated using the following formula: […] For each inhibitor compound tested, an IC50 concentration was calculated from a best-fit computer analysis of the calculated percent inhibition for the various dilutions of the compound. PTP-1B enzymatic activity of samples was assayed in microtiter plates as follows. The protein concentration of the PTP-1B enzyme preparation was determined using the Bio-Rad Protein Assay kit (Bio-Rad, Hercules Calif.). […] Reactions were mixed gently and incubated at 37° C. for 60 minutes. Enzymatic cleavage of phosphate from pNPP (a tyrosine phosphate analog) is marked by a colorimetric change in this substrate. See, e.g., Imbert et al., Biochem J., 297:163-173 (1994); Ghosh and Miller, Biochem. Biophys. Res. […] Zanke et al., Eur. […] To determine the enzymatic activity, absorbance readings of the reactions were measured at 405 nm using a Molecular Devices Thermomax Plate Reader (Menlo Park Calif.). […] Purified phosphatase was added to the reaction mixtures to begin the reactions; the reactions were incubated at 37° C. for 60 min. […] (for PTP-1C and PTPα assays), stopped, and calorimetrically analyzed as described above. […] First, absorbance readings from the negative control reactions were treated as a baseline and subtracted from the absorbance readings of the experimental reactions. Then, for each reaction, a percent inhibition was calculated using the following formula: […] For each inhibitor compound tested, an IC50 concentration was calculated from a best-fit computer analysis of the calculated percent inhibition for the various dilutions of the compound.

A further experiment concerns the target T2, CD45 (Homo sapiens, UniProt P08575).
T2 construct: The PCR reaction product (2127 bp) was digested with Sma I (New England Biolabs, Beverly Mass.) to yield a 2110 bp product; made in house; host or cells: E. coli DH5α, plasmid pET24C-CD45
T2 sequence (P08575 599-1306 limits assumed): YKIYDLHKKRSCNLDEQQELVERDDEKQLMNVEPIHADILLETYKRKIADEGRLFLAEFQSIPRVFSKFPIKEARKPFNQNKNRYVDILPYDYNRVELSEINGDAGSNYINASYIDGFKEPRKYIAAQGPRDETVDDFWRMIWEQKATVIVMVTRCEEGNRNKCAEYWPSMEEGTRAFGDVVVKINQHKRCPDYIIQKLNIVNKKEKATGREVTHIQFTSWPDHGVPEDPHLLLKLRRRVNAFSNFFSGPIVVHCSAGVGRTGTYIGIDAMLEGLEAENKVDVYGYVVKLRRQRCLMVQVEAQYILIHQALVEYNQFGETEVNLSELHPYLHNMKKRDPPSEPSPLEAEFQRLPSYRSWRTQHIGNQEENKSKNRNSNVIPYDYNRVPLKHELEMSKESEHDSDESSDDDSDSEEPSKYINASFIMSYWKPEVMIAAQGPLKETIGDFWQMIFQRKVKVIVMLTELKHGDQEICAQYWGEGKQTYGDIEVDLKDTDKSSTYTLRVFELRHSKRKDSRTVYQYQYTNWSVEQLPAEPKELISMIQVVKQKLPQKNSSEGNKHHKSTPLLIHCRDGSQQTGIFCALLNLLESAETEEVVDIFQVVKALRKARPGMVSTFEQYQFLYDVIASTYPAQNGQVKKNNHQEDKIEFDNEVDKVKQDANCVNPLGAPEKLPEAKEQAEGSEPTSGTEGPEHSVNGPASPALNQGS
Description: In vitro PTPase inhibition assay (pNPP, colorimetric), CD45. As to conditions: Table 9; read-out: IC50 values against CD45. It is filed as biochemical. As to the method: CD45 enzymatic activity of samples was assayed in microtiter plates as follows. […] Louis Mo.), and 80 ul of activity assay buffer (100 mM sodium acetate, pH 6.0, 1 mM EDTA, 0.1% Triton X-100, 15 mM bME). Reactions were mixed gently and incubated at 37° C. for 60 minutes. […] To determine the enzymatic activity, absorbance readings of the reactions were measured at 405 nm using a Molecular Devices Thermomax Plate Reader (Menlo Park Calif.). […] Purified phosphatase was added to the reaction mixtures to begin the reactions; the reactions were incubated at 37° C. for 60 min. […] (for PTP-1C and PTPα assays), stopped, and colorimetrically analyzed as described above. […] First, absorbance readings from the negative control reactions were treated as a baseline and subtracted from the absorbance readings of the experimental reactions. Then, for each reaction, a percent inhibition was calculated using the following formula: […] For each inhibitor compound tested, an IC50 concentration was calculated from a best-fit computer analysis of the calculated percent inhibition for the various dilutions of the compound. CD45 enzymatic activity of samples was assayed in microtiter plates as follows. […] Louis Mo.), and 80 ul of activity assay buffer (100 mM sodium acetate, pH 6.0, 1 mM EDTA, 0. 1% Triton X-100, 15 mM bME). Reactions were mixed gently and incubated at 37° C. for 60 minutes. […] To determine the enzymatic activity, absorbance readings of the reactions were measured at 405 nm using a Molecular Devices Thermomax Plate Reader (Menlo Park Calif.). […] Purified phosphatase was added to the reaction mixtures to begin the reactions; the reactions were incubated at 37° C. for 60 min. […] (for PTP-1C and PTPα assays), stopped, and calorimetrically analyzed as described above. […] First, absorbance readings from the negative control reactions were treated as a baseline and subtracted from the absorbance readings of the experimental reactions. Then, for each reaction, a percent inhibition was calculated using the following formula: […] For each inhibitor compound tested, an IC50 concentration was calculated from a best-fit computer analysis of the calculated percent inhibition for the various dilutions of the compound.

In the case of `O=C(O)/C=C/c1ccc(C(=O)C(=O)c2ccc(/C=C/C(=O)O)cc2)cc1` [Compound 9], the IC50 is 370 nM on PTP-1B and 3900 nM on CD45. As to `CCCCCCCCNC(=O)/C=C/c1ccc(C(=O)C(=O)c2ccc(/C=C/C(=O)O)cc2)cc1` [Compound 13], the IC50 at PTP-1B worked out at 31000 nM. For `O=C(O)/C=C/c1ccc(C(O)C(O)c2ccc(/C=C/C(=O)O)cc2)cc1` (stereo not shown) [Compound 23], on PTP-1B, the IC50 stood at 270 nM.

Turning to `COc1ccc(C(=O)OC(c2ccc(/C=C/C(=O)O)cc2)C(O)c2ccc(/C=C/C(=O)O)cc2)cc1` (stereo not shown) [Compound 25], the IC50 on PTP-1B amounted to 890 nM. Turning to `COc1ccc(C(=O)OC(C(=O)c2ccc(/C=C/C(=O)O)cc2)c2ccc(/C=C/C(=O)O)cc2)cc1` (stereo not shown) [Compound 27], on PTP-1B, the IC50 came out at 500 nM. As for `COC(=O)CCCCC(=O)OC(c1ccc(/C=C/C(=O)O)cc1)C(O)c1ccc(/C=C/C(=O)O)cc1` (stereo not shown) [Compound 29], the IC50 on PTP-1B is 800 nM. On the same count and under the same terms, under `CCCCCCC(OC(=O)c1ccc(/C=C/C(=O)O)cc1)C(=O)NCC(=O)OCC` (stereo not shown) [Compound 32] stands 1800 nM. With `O=C(O)/C=C/c1ccc(-c2nc(-c3ccc(C(=O)O)cc3)[nH]c2-c2ccc(/C=C/C(=O)O)cc2)cc1` [Compound 54], the results for the IC50 at PTP-1B and on CD45 were 72 nM and 730 nM, respectively.

Turning to `O=C(O)/C=C/c1ccc(-c2nc[nH]c2-c2ccc(/C=C/C(=O)O)cc2)cc1` [Compound 55], the IC50 at PTP-1B was 100 nM; at CD45, 560 nM. Turning to `O=C(O)/C=C/c1ccc(-c2nc(-c3ccccc3[N+](=O)[O-])[nH]c2-c2ccc(/C=C/C(=O)O)cc2)cc1` [Compound 57], the IC50 was determined as 250 nM on PTP-1B and 1000 nM on CD45. `COc1ccc(-c2nc(-c3ccc(/C=C/C(=O)O)cc3)c(-c3ccc(/C=C/C(=O)O)cc3)[nH]2)cc1` [Compound 58]: the IC50 was 250 nM at PTP-1B and 970 nM at CD45. Taken in the same sequence, the figures for `COc1cccc(-c2nc(-c3ccc(/C=C/C(=O)O)cc3)c(-c3ccc(/C=C/C(=O)O)cc3)[nH]2)c1[N+](=O)[O-]` [Compound 59] were 250 nM and 350 nM.

Regarding `O=C(O)/C=C/c1ccc(-c2nc(-c3ccco3)[nH]c2-c2ccc(/C=C/C(=O)O)cc2)cc1` [Compound 60], the IC50 on PTP-1B came to 290 nM; on CD45, 1000 nM. `O=C(O)/C=C/c1ccc(-c2nc(-c3cccc(F)c3)[nH]c2-c2ccc(/C=C/C(=O)O)cc2)cc1` [Compound 61]: the figures for the IC50 on PTP-1B and on CD45 were 970 nM and 955 nM, respectively. In the case of `O=C(O)/C=C/c1ccc(-c2nc(-c3ccc4ccccc4n3)[nH]c2-c2ccc(/C=C/C(=O)O)cc2)cc1` [Compound 63], the 50% inhibitory concentration (IC50) stood at 1700 nM on PTP-1B and 2400 nM at CD45. On the same counts, the results for `COC(=O)c1ccc2cc(-c3nc(-c4ccc(/C=C/C(=O)O)cc4)c(-c4ccc(/C=C/C(=O)O)cc4)[nH]3)[nH]c2c1` [Compound 64] are 3000 nM and 6400 nM. Taken in the same sequence, the figures for `O=C(O)/C=C/c1ccc(-c2nc(-c3cc(F)cc(F)c3)[nH]c2-c2ccc(/C=C/C(=O)O)cc2)cc1` [Compound 65] were 1300 nM and 1400 nM. On the same counts, the results for `O=C(O)/C=C/c1ccc(-c2nc(-c3ccc(F)c(F)c3)[nH]c2-c2ccc(/C=C/C(=O)O)cc2)cc1` [Compound 66] are 1700 nM and 2500 nM. In the case of `O=C(O)/C=C/c1ccc(-c2nc(-c3cccc(F)c3F)[nH]c2-c2ccc(/C=C/C(=O)O)cc2)cc1` [Compound 67], the results for the IC50 on PTP-1B and at CD45 were 1000 nM and 1250 nM, respectively.

In the case of `CCN(CC)c1ccc(-c2nc(-c3ccc(/C=C/C(=O)O)cc3)c(-c3ccc(/C=C/C(=O)O)cc3)[nH]2)cc1` [Compound 68], the IC50 came out at 300 nM at PTP-1B and 865 nM on CD45.

As for `COc1cccc(-c2nc(-c3ccc(/C=C/C(=O)O)cc3)c(-c3ccc(/C=C/C(=O)O)cc3)[nH]2)c1O` [Compound 69], the IC50 was found to be 410 nM at PTP-1B and 1900 nM at CD45. Taken in the same sequence, the figures for `O=C(O)/C=C/c1ccc(-c2nc(-c3cccs3)[nH]c2-c2ccc(/C=C/C(=O)O)cc2)cc1` [Compound 70] were 420 nM and 1900 nM.

For `O=C(O)/C=C/c1ccc(-c2nc(-c3ccc4c(c3)OCCO4)[nH]c2-c2ccc(/C=C/C(=O)O)cc2)cc1` [Compound 71], the half-inhibitory concentration (IC50) on PTP-1B stood at 430 nM; on CD45, 530 nM. Taken in the same sequence, the figures for `COc1cc(OC)c(OC)c(-c2nc(-c3ccc(/C=C/C(=O)O)cc3)c(-c3ccc(/C=C/C(=O)O)cc3)[nH]2)c1` [Compound 72] were 520 nM and 5500 nM. Take `CCCCNC(=O)C(OC(=O)c1ccc(/C=C/C(=O)O)cc1)C(=O)c1ccc(F)cc1` (stereo not shown) [Compound 144]: the IC50 at PTP-1B was found to be 3000 nM.

Consider `CCCCNC(=O)c1oc(-c2ccc(/C=C/C(=O)O)cc2)nc1-c1ccc(F)cc1` [Compound 148], for which, at PTP-1B, the IC50 worked out at 9000 nM. Still for that read-out and setting: under `COc1ccc(C(=O)OC(c2ccc(/C=C/C(=O)O)cc2)C(OC(=O)c2ccc(OC)cc2)c2ccc(/C=C/C(=O)O)cc2)cc1` (stereo not shown) [Compound 162] stands 1800 nM; under `COc1ccc(-c2nc(-c3ccc(/C=C/C(=O)O)cc3)c(-c3ccc(/C=C/C(=O)O)cc3)s2)cc1` [Compound 168], 3000 nM.
